Experimental data taken from publication PMC9612231, “Antileishmanial Anthracene Endoperoxides: Efficacy In Vitro, Mechanisms and Structure-Activity Relationships” (Molecules, 2022).
Where two headings read alike, the source gives them in different places.

Legend:
[1] = Formation of the xylenol orange/Fe3+ complex by EP; conditions: AcEP and 250 µM FeSO4 in methanol/H2O (9:1); for XO/Fe^3+ Formation Rate: mean ± SD of 3 experiments
Source text: In subsequent experiments, we explored the activation of EP and possible cellular consequences of these compounds in Leishmania. In a chemical system, we tested how fast EP react with iron (II) and, therefore, lead to the activation of these compounds. Resulting iron (III) was detected as complex with xylenol orange (XO, Figure 3). The reaction rate of the EP stretched across two magnitudes of orders (Table 3). On the first view, there is no direct link between the activation rates and the efficiency of the compounds against Leishmania.
XO (125 µM) and butylated hydroxytoluene (4 mM) were dissolved in MeOH/H2O (9:1). FeSO4 (25 mM) in 2.5 M H2SO4 was prepared immediately before use (final concentration of 250 µM FeSO4 in the color reagent). An aliquot of 100 µL EP solution (final concentration of 100 µM) was transferred into a disposable cuvette (BRAND, Wertheim, Germany), and 1 mL of the color reagent was added. The EP that reacted slower were incubated for 0, 30, 60, and 90 min at 25 °C. The EP that reacted faster were measured every 5 s over 5 min. At these time points, the OD difference of the sample at 560 nm and 650 nm was determined using a MS1501 UV–VIS diode array spectrophotometer (Shimadzu, Kyoto, Japan). As reference, a mixture of MeOH/H2O (9:1) was used. The slope of the reaction rate was calculated using an extinction coefficient of 1.5 × 10^4 M^−1 cm^−1.

[2] = test system: Leishmania tarentolae promastigotes (LtP); assay: Resazurin viability assay for LtP; type: cell-based; conditions: for IC50: Leishmania tarentolae, read-out: LtP IC50; for Selectivity IC50,J774/IC50,LtP: ratio of IC50 in J774 macrophages to IC50 in LtP; for IC50,non-EP/IC50,EP: ratio of IC50 of non-EP in LtP versus IC50 of respective EP
Protocol: (§1) The influence of AcEP and their analogs (Ac) on the viability of cells was tested in Leishmania tarentolae promastigotes (LtP) and J774 macrophages (Table 2). Based on the changes of viability of the respective cell lines at different compound concentrations, IC50 values were calculated. In Table 2, the IC50 values in both cell lines were compared for the individual compounds. From the ratio of IC50 values in J774 macrophages to IC50 values in LtP, an in vitro selectivity was calculated.
LtP (strain P10 from Jena Bioscience, Jena, Germany) were cultivated according to manufacturer instructions up to passage 50 in brain heart infusion medium (37 g/L, pH 7.4) and supplemented with 5 mg/L hemin and 25,000 IU/L penicillin and 25 mg/L streptomycin in 50 mL TubeSpin bioreactors (TPP, Trasadingen. Switzerland). LtP were grown at 27 °C in an incubator (Ehret, Emmendingen, Germany) and agitated at a frequency of 0.05 s^−1. […] For experiments, LtP were used one day after passage. The cell number was calculated by measuring the optical density (OD) of the culture at 600 nm with a U-1100 photometer (Hitachi Ltd., Tokyo, Japan) and applying the formula × 10^6 cells/mL = OD600nm × 0.969 × 124 × dilution factor [53].
Assay medium of YEM (20.7 g/L yeast extract powder, 1.2 g/L K2HPO4, 0.2 g/L KH2PO4, 2.9 g/L glucose, pH 7.4) and PBS (1:1, v/v), 25,000 U/L penicillin, 25 mg/L streptomycin, and 7.7 µM hemin was prepared. Aliquots of 200 µL of this medium and 2 × 10^6 LtP/mL (where required) were distributed in non-treated cell culture 96-well plates. Compounds (dissolved in DMSO) were added with starting concentrations of 25 µM (Pen) or 200 µM (AcEP/Ac), and then, serial dilutions were carried out resulting in a set of concentrations (25, 5, 1, 0.2, 0.04, and 0.008 µM) or (200, 40, 8, 1.6, 0.32, and 0.064 µM). For each compound concentration, at least triplicates on each plate were performed. After incubation of the plates at 27 °C for 48 h, 50 µL of resazurin solution (final concentration in wells 20 µM) was added to each well and after 4 h of incubation, the fluorescence was measured at 560 nm excitation and 590 nm emission using a plate reader (Perkin Elmer EnSpire, Rodgau, Germany) (adapted from). Combination assays for viability in the presence of PIH and NAC were performed the same way. […] All tests were repeated at least on four different weeks of cultivation.
(§2) Calculations were carried out using Microsoft Excel 2016 (Microsoft). The graphs were created using Origin 6.1 (OriginLab Corporation, Northampton, MA, USA). For all groups of experimental data, mean and standard deviation (SD) were calculated. Statistically significant differences between groups of sample data were identified by unpaired two-tailed Student’s t-test. Differences on the level of p < 0.05 were considered significant. The number of replicates is indicated at the respective figures/tables. The half-maximal inhibitory concentrations (IC50) were determined from non-linear concentration-response curves using a four-parameter logistic model and expressed as the mean ± SD.

J774 macrophages = assay: Resazurin viability assay for J774 macrophages; type: cell-based, murine; conditions: read-out: J774 IC50
Protocol: as §1
The murine macrophage cell line J774A.1 (ATCC, TIB-67™, Wesel, Germany) was cultivated up to passage 30 in DMEM (high glucose, 3.7 g/L NaHCO3, pH 7.4) with 25,000 IU/L penicillin, 25 mg/L streptomycin, and 10% FCS (heat-inactivated) in 50 mL TubeSpin bioreactors. J774 cells were incubated at 37 °C and 5% CO2 on a roller culture apparatus (5 rpm) in a Heraeus Cytoperm 8080 incubator (Thermo Electron Corp., Vienna, Austria). To determine the cell count, the cell suspension was re-suspended and diluted 1:2 with phosphate-buffered saline (PBS): 137 mM NaCl, 1.4 mM KH2PO4, 4.3 mM Na2HPO4, and 2.7 mM KCl, pH 7.4. After fixation of the cells by mixing the cell suspension 1:1 with a formaldehyde solution (2%, v/v), aliquots of the resulting suspension were transferred into a standard Neubauer chamber (VWR, Austria) and counted manually using a light microscope (Motic BA310, Vienna, Austria) at a magnification of 40 times. J774 cells were passaged twice a week in a ratio of 1:10.
DMEM containing 25,000 U/L penicillin, 25 mg/L streptomycin, 10% FCS, and 1 × 10^5 J774/mL was prepared. This mixture (200 µL) was distributed in cell culture-treated 96-well plates, except the control wells which contained only DMEM. The cells were incubated for 24 h at 37 °C and 5% CO2 to allow attachment. Afterwards the medium and non-adherent cells were removed by washing with PBS, and then, 200 µL DMEM was added to attached cells. Compounds dissolved in DMSO were added in starting concentrations of 25 µM (Pen) or 200 µM (AcEP/Ac), and then, serial dilutions were carried out resulting in the same concentration steps as listed for LtP. For each compound concentration triplicates on each plate were performed. […], 50 µL of resazurin solution (final concentration 20 µM) was added, and after 4 h of incubation, the fluorescence was measured at 560 nm excitation and 590 nm emission using a plate reader (Perkin Elmer EnSpire, Rodgau, Germany). All tests were repeated at least on four different weeks of cultivation.
as §2

LtP = assay: Superoxide radical formation in LtP by the EPR/CMH method; type: cell-based, Leishmania tarentolae; conditions: antimycin A 20 µM, 20 min at 25 °C
Source text: Since mitochondrial inhibition can be triggered by secondary damage in the respective cells, for example, by superoxide radicals, we studied the formation of superoxide radicals in LtP by the EPR/hydroxyl-3-methoxycarbonyl-2,2,5,5-tetramethylpyrrolidine hydrochloride (CMH) method (Figure 10). […] In the presence of antimycin A (AA, an inhibitor of mitochondrial complex III), the superoxide radical formation in LtP is increased by more than 150% (Figure 11).
An aliquot of the LtP cell culture equivalent to 5 × 10^8 LtP was transferred into a 1.5 mL Eppendorf tube and was centrifuged (Hettich Universal 16, 20 °C, 2000× g, 10 min). After removal of the supernatant, the cell pellet was re-suspended in 1 mL PBS and centrifuged again and the supernatant discarded. The cell pellet was re-suspended in 1 mL of PBS with 15 mM glucose (PBS-gluc), giving a final cell density of 5 × 10^8 LtP/mL. AcEP/Ac compounds were added (100 µM final concentration) to aliquots of 50 µL of this cell suspension in 1.5 mL Eppendorf tubes and incubated for 20 min at 25 °C. Then, DFO (100 μM final concentration), DTPA (25 μM final concentration), and detection agent CMH (400 µM final concentration) were added to the aliquots before measurement. Samples containing only buffer (PBS-gluc) or only LtP (in PBS-gluc) were used as negative controls, while samples containing 20 μM AA were used as positive control. An aliquot of 17 µL suspension was aspirated into a PTFE tube (ø 0.7 mm). The tube was folded into a quartz tube (ø 4 mm outer diameter) and then transferred to the MD5 resonator of the EPR spectrometer. The measurement was started using following parameters: microwave frequency 9.682 GHz; microwave power 20 mW, modulation frequency 100 kHz; modulation amplitude 1 G; time constant 0.82 s; center field 3448 G; sweep width 100 G; scan time 84 s; attenuation 70 dB; separate scans 5. Based on a calibration curve with carboxy proxyl (CP^●) changes of the peak-to-peak intensity of CM^● spectra were converted to CMH oxidation rates (superoxide radical generation).

[3] = resazurin viability, endpoint 48 h, 2 × 10^6 LtP/mL, mean ± SD of 4–8 experiments
[4] = Mus musculus, J774, 48 h, resazurin viability, endpoint 48 h, 10^5 J774 cells/mL, mean ± SD of 4–8 experiments

Row | Compound | IC50 [2, 3] [µM] | Selectivity IC50,J774/IC50,LtP [2] | Log10 (Formation Rate) [1] | XO/Fe^3+ Formation Rate [1] | IC50 (J774 macrophages; [4]) [µM] | also measured
1 | c1ccc2c(c1)C1OOC2c2ccccc21 [AcEP] | 19.7 ± 14.1 | 0.06 | 3.90 | 8110 ± 4197 nmol/min | 1.21 ± 0.32 | IC50,non-EP/IC50,EP [2]: >10.1
2 | CC(=O)OCC1OC(OC23OOC(OC4OC(COC(C)=O)C(OC(C)=O)C(OC(C)=O)C4OC(C)=O)(c4ccccc42)c2ccccc23)C(OC(C)=O)C(OC(C)=O)C1OC(C)=O (stereo not drawn) [BisGluAcEP] | > 200 |  | 3.83 | 6800 ± 326 nmol/min | > 200 | 
3 | CC(=O)OCC1OC(Oc2c3ccccc3c(OC3OC(COC(C)=O)C(OC(C)=O)C(OC(C)=O)C3OC(C)=O)c3ccccc23)C(OC(C)=O)C(OC(C)=O)C1OC(C)=O (stereo not drawn) [BisGluAc] | > 200 |  |  |  | > 200 | 
4 | c1ccc(-c2c3ccccc3c(-c3ccccc3)c3ccccc23)cc1 [DPAc] | 197 ± 92 | 0.7 |  |  | 136 ± 35 | Activity against LtP, in words ([2]; viability assay): rather inactive
5 | CC(=O)OCC1OC(C23C=C(C(C)(C)C)C(C4OC(COC(C)=O)C(OC(C)=O)C(OC(C)=O)C4OC(C)=O)(OO2)c2ccccc23)C(OC(C)=O)C(OC(C)=O)C1OC(C)=O (stereo not drawn) [MB359EP] | > 200 |  | 4.26 | 18,533 ± 1147 nmol/min | > 200 | 
6 | CC(=O)OCC1OC(OC23OOC(c4ccccc42)c2ccccc23)C(OC(C)=O)C(OC(C)=O)C1OC(C)=O (stereo not drawn) [MonoGluAcEP] | 32.3 ± 23.4 | 4.7 | 4.10 | 12,697 ± 1500 nmol/min | 153 ± 82.1 | IC50,non-EP/IC50,EP [2]: 4.89
7 | CCCCCC[C@H]1C(=O)O[C@H](C)[C@H](NC(=O)c2cccc(NC=O)c2O)C(=O)O[C@@H](C)[C@@H]1OC(=O)CC(C)C [antimycin A, reference compound] |  |  |  |  |  | Increase of superoxide radical formation in LtP (LtP): more than 150%
8 | CC(C)(C)c1ccc2c(-c3ccccn3)c3ccccc3c(-c3ccccn3)c2c1 [pPyBuAc] |  | 57 |  |  |  | IC50 ([2]; 48 h): 1.86 ± 1.1 µM; IC50 (J774 macrophages; Mus musculus, J774, 48 h): 107 ± 46 µM

The next lines start with results.

Row | IC50 [2, 3] [µM] | Selectivity IC50,J774/IC50,LtP [2] | Compound | Log10 (Formation Rate) [1] | XO/Fe^3+ Formation Rate [1] | IC50 (J774 macrophages; [4]) [µM] | also measured
9 | 158 ± 45.1 | 0.6 | CC(=O)OCC1OC(Oc2c3ccccc3cc3ccccc23)C(OC(C)=O)C(OC(C)=O)C1OC(C)=O (stereo not drawn) [MonoGluAc] |  |  | 101 ± 7.8 | 
10 | 0.52 ± 0.16 |  | N=C(N)c1ccc(OCCCCCOc2ccc(C(=N)N)cc2)cc1 [Pen, pentamidine, reference compound] |  |  | ~12 | LtP IC50 [2, 3]: submicromolar; IC50 (J774 macrophages; resazurin viability, endpoint 48 h, 10^5 J774 cells/mL, mean ± SD of 4–8 experiments): 12.3 ± 3.96 µM
11 | > 200 |  | c1cncc(C23OOC(c4cccnc4)(c4ccccc42)c2ccccc23)c1 [mPyAcEP] | 2.85 | 708 ± 37 nmol/min | > 200 | IC50,non-EP/IC50,EP [2]: <0.26
12 | 52.5 ± 3.3 | 1.2 | c1cncc(-c2c3ccccc3c(-c3cccnc3)c3ccccc23)c1 [mPyAc] |  |  | 63.7 ± 7.6 | 
13 | 73.3 ± 25.2 | >2.7 | COc1ccccc1-c1c2ccccc2c(-c2ccccc2OC)c2ccccc12 [oOMeAc] |  |  | > 200 | 
14 | 34.5 ± 12.8 | 2.0 | c1ccc(-c2c3ccccc3c(-c3ccccn3)c3ccccc23)nc1 [oPyAc] |  |  | 70 ± 10.5 | 
